From patent US20230167068A1, “BENZOPYRAZOLE COMPOUND” (MEDSHINE DISCOVERY INC., priority 2019, published 2023) come the findings set out here.

The nature of data set [1]: In vivo pharmacokinetic properties study in male SD rats. To be noted: rat, plasma, iv 2 mg/kg. The method, then:
Experimental purpose: The purpose of this study was to determine the pharmacokinetic parameters of compounds in male SD rats.
Experimental methods: In this project, two male SD rats were intravenously administered with a dose of 2 mg/kg and a concentration of 0.4 mg/mL. Plasma samples were collected at 0 h (before administration) and 0.0833, 0.25, 0.5, 1, 2, 4, 6, 8, 24 h after administration. Then the collected samples were analyzed by LC-MS/MS and the data were collected. The collected analytical data were used to calculate the relevant pharmacokinetic parameters using Phoenix WinNonlin 6.3 software.

Data set [2] deals with human peripheral blood mononuclear cells TNF-α. Put plainly: Repression of TNF-α in human peripheral blood mononuclear cells (LPS, ELISA). The class given is cell-based. Conditions: PBMC, 3-fold diluted, 8 concentration (**). The method, then:
Experimental purpose: To express the anti-inflammatory activity of the test compound at the cellular level according to the level of TNF-α in human peripheral blood mononuclear cells (hPBMC).
• [0488] 1) The frozen cells were quickly thawed by continuous stirring in a 37° C. water bath. • [0489] 2) 25 mL of fresh pre-heated thawed culture medium was added to a 50 mL centrifuge tube. Then the cells were added gently, drop by drop. • [0490] 3) Cells were centrifuged at 2000 rpm for 10 min (ascending speed: 9, descending speed: 1). • [0491] 4) The supernatant was discarded and the cell particles were resuspended in 25 mL of freshly pre-heated RPMI 1640 culture medium.
• [0493] 5) After thawing and resuscitating the suspended cells, the number of cells was counted and the total number of cells required for the experiment was calculated. • [0494] 6) The cell suspension was diluted with an appropriate volume of cell culture medium. • [0495] 7) The cell suspension was poured into a sterile disposable container. • [0496] 8) 100,000 cells/(100 µL) of cell suspension was transferred to each well of a 96-well plate. • [0497] 9) The cell plates were placed in humidified air, 5% CO2 incubator, 37° C. for 2 hours.
[…] In the second step, the serum-free culture medium was diluted 125 times, and the concentration of DMSO was 0.8%. Then 16.8 µL of the compound diluted in culture medium was transferred to a 100 µL cell plate, and the concentration of DMSO was 0.114%.
After adding the compound, the cell plates were incubated in a 37° C. 5% CO2 incubator for 1 hour.
In the first step, LPS was diluted with ultrapure water to a storage concentration of 1 mg/mL. In the second step, the storage concentration of LPS was diluted to 1 µg/mL in serum-free culture medium. In the third step, serum-free culture medium was 1666.666-fold diluted. Then 16.8 µL of LPS that has been diluted with culture medium was transferred to a 116.8 µL cell plate. At this time, the final concentration of DMSO was 0.1%. After adding LPS, the cell plate was put into a 37° C., 5% CO2 incubator and incubated for 18 hours.
• [0505] 1. The TNF-α antibody was diluted to 1× in the coating solution, and then 100 µL per well was added to a 96-well high-binding performance plate, and the plate was sealed with a membrane and placed at 4° C. for 18 hours. • [0506] 2. 2000 mL of wash buffer was prepared to 1x for later use.
• [0508] 3. After the plate was coated overnight, the coating solution was poured out and washed 3 times with 300 µL of washing buffer per well. • [0509] 4. After the plate was washed, 200 µL of sealing buffer was added to each well, and the plate was sealed with membrane. Incubated for one hour in a 25° C. incubator. • [0510] 5. The cell plates incubated for 18 hours were placed in a centrifuge for centrifugation, temperature: 25° C., speed: 2000 rpm, time: 10 min, ascending speed: 9, descending speed: 1. After centrifugation, 100 µL of cell supernatant from each well was transferred to a 3599 cell plate, and then placed in a 4° C. refrigerator for later use. • [0511] 6. The cell supernatant was diluted 40 times with sealing buffer and placed in a 4° C. refrigerator for later use, and the standard was also placed in a 4° C. refrigerator for later use. • [0512] 7. After the sealing was completed, the sealing solution was poured out and washed three times with 300 µL of washing buffer per well. • [0513] 8. The diluted cell supernatant samples and standards were added to the ELISA plate, and the plate was sealed with membrane. Then incubated for 2 hours in a 25° C. incubator. • [0514] 9. The liquid in the plate was poured out and washed 5 times with 300 µL of washing buffer per well. • [0515] 10. Antibodies were prepared and 100 µL was added to each well and the plate was sealed with sealing membrane. Then incubated for one hour in a 25° C. incubator. • [0516] 11. The liquid in the plate was poured out and washed 7 times with 300 µL of washing buffer per well. • [0517] 12. […]

Data set [3] addresses T1, CYP3A4 (Homo sapiens, UniProt P08684).
T1 construct: incubation system containing human liver microsomes, probe substrates, and co-factors; tissue Corning Inc. or other suppliers; host or cells: mixed (pooled) human liver microsomes
Put plainly: Human liver microsomal CYP repression experiment. To be noted: for repression on CYP3A4 (in words): conclusion on Table 3; for IC50: mixed human liver microsomes, 5-in-1 probe substrate. Format: in vitro ADME. The method, then: The purpose of the research project was to evaluate the repression of the test sample on human liver microsomal cytochrome P450 isoenzyme (CYP3A4) using a 5-in-1 probe substrate of CYP isoenzyme.
Mixed human liver microsomes (HLM) were purchased from Corning Inc. (Steuben, New York, USA) or other suppliers and stored at temperatures below -70° C. before use.
The diluted series concentration of the test sample was added to the incubation system containing human liver microsomes, probe substrates, and co-factors of the circulating system, and the control without the test sample but with solvent was used as the enzyme activity control (100%). The concentration of metabolites produced by the probe substrate in the sample was determined by liquid chromatography-tandem mass spectrometry (LC-MS/MS). Non-linear regression analysis of the mean percent activity of the test sample versus concentration was performed using SigmaPlot (V. 11). The IC50 values were calculated by a three- or four-parameter inverse logarithmic equation.

T1 sequence (P08684 whole entry): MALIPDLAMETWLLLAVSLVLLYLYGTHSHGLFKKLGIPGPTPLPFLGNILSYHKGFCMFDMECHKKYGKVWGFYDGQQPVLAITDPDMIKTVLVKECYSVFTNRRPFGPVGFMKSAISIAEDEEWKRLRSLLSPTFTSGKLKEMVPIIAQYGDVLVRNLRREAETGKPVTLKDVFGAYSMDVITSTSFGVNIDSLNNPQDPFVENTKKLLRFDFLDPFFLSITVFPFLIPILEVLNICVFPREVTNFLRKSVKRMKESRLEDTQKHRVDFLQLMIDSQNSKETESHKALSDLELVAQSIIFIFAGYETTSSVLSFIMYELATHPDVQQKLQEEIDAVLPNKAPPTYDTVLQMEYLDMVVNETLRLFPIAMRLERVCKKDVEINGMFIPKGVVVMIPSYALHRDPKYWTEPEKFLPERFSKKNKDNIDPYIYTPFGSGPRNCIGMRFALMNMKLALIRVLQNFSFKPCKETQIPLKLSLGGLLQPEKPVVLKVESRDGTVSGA

In turn, `CC(C)[C@H](NC(=O)C(C)(F)F)[C@H](Oc1ccc2c(cnn2-c2ccc(=O)n(C)c2)c1)c1ccccc1` [AZD9567, reference compound] registered a clearance in data set [1] of 4.25 mL/min/kg. The half-life in data set [1] (read-out: T½ (converted)) is 1.99 h. In data set [1] (read-out: Vdss), the Vd was 0.56 L/kg. In addition, the IC50 in data set [2] (absolute IC50, test Top concentration 500 nM, read-out: hPBMC IC50) amounted to 57.4 nM. The compound also showed an Emax in data set [2] (maximum effect value, test Top concentration 500 nM) of 54.6%. In addition, in data set [3], the “repression on CYP3A4 (in words)” value is “moderate repression on CYP3A4” and the IC50 worked out at 2950 nM.
On to `C[C@H](NC(=O)C(C)(F)F)[C@H](Oc1ccc2c(cnn2-c2cn(C)nn2)c1)c1ccccc1` [WX053], for which, in data set [3], the “repression on CYP3A4 (in words)” value was “significantly improve the repression of CYP3A4” and it took 15700 nM to reach half-maximal inhibition (IC50).
